Source: publication PMC12490239, “Combining BET inhibition with SMAC mimetics restricts tumor growth and triggers immune surveillance in preclinical cancer models” (Cell Reports Medicine, 2025)
pIC50: −log10 of the molar value.

Assays:
Assay in all cases: cells
Set-up in all cases: CellTiter-Glo 2.0 luminescence proliferation/viability assay, single agents, human tumour cell line panel
HCT-116 = details: Homo sapiens, HCT-116, 96 h; single agent; read-out: IC50 SMACm
Summary of the method: (§1)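 Human tumour cell lines were seeded into assay plates and held at 37°C with 5% CO2 for twenty-four hours, then exposed in triplicate to rising concentrations of the SMAC mimetic, from 4.5 nM to 10 μM, with DMSO as control. After 96 h, viability was read as CellTiter-Glo2.0 luminescence to derive single-agent IC50 values.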

HCA46 = details: 96 h; single agent; read-out: IC50 SMACm
Summary of the method: as §1

HCT-15 = details: Homo sapiens, HCT-15, 96 h; single agent; read-out: IC50 SMACm
Summary of the method: as §1

SNU1544 = details: 96 h; single agent; read-out: IC50 SMACm
Summary of the method: as §1

HCC95 = details: Homo sapiens, HCC95, 96 h; single agent; read-out: IC50 SMACm
Summary of the method: as §1

C84 = details: 96 h; single agent; read-out: IC50 SMACm
Summary of the method: as §1

SNUC2B = details: Homo sapiens, SNU-C2B, 96 h; single agent; read-out: IC50 SMACm
Summary of the method: as §1

C75 = details: 96 h; single agent; read-out: IC50 SMACm
Summary of the method: as §1

C10 = details: 96 h; single agent; read-out: IC50 SMACm
Summary of the method: as §1

COLO60H = details: 96 h; single agent; read-out: IC50 SMACm
Summary of the method: as §1

HT-115 = details: HT115, 96 h; single agent; read-out: IC50 SMACm
Summary of the method: as §1

MKN74 = details: Homo sapiens, MKN-74, 96 h; single agent; read-out: IC50 SMACm
Summary of the method: as §1

SW900 = details: Homo sapiens, SW900, 96 h; single agent; read-out: IC50 SMACm
Summary of the method: as §1

Calu-3 = details: Homo sapiens, Calu-3, 96 h; single agent; read-out: IC50 SMACm
Summary of the method: as §1

HT-29 = details: Homo sapiens, HT-29, 96 h; single agent; read-out: IC50 SMACm
Summary of the method: as §1

pIC50 (HCT-116): 5.39 | pIC50 (HCT-15): 5.55 | pIC50 (SNU1544): 5.51 | pIC50 (HCC95): 5.22 | pIC50 (SNUC2B): 6.86 | pIC50 (COLO60H): 5.36 | pIC50 (MKN74): 5.34 | pIC50 (SW900): 5.75 | pIC50 (Calu-3): 5.84 | pIC50 (HT-29): 5.37
Structure (SMILES): CN[C@@H](C)C(=O)Nc1ccc(-c2c(-c3cccnc3OC)nc3cc(C)ccn23)c(C#Cc2ccc3c(C)nccc3c2)n1 [SMACm, BI 891065]
pIC50 (HCA46): 5.45 | pIC50 (C84): 5.48 | pIC50 (C75): 5.55 | pIC50 (C10): 5.19 | pIC50 (HT-115): 5.41
